Laboratory results reported in doi:10.1101/2025.11.11.687791v2, “Structural basis for multiple binding modes of antimalarial ligands targeting Plasmodium falciparum NCR1” (biorxiv, 2026).

Key:
Type in all cases: binding
PfNCR1 [1] = biological target: T1, PfNCR1 (Plasmodium falciparum, UniProt Q8I266); experiment: tryptophan fluorescence quenching; conditions: purified protein in GDN; ecto site
T1 construct: gene NCR1; CHS added for structural samples
T1 sequence (Q8I266 1-1470): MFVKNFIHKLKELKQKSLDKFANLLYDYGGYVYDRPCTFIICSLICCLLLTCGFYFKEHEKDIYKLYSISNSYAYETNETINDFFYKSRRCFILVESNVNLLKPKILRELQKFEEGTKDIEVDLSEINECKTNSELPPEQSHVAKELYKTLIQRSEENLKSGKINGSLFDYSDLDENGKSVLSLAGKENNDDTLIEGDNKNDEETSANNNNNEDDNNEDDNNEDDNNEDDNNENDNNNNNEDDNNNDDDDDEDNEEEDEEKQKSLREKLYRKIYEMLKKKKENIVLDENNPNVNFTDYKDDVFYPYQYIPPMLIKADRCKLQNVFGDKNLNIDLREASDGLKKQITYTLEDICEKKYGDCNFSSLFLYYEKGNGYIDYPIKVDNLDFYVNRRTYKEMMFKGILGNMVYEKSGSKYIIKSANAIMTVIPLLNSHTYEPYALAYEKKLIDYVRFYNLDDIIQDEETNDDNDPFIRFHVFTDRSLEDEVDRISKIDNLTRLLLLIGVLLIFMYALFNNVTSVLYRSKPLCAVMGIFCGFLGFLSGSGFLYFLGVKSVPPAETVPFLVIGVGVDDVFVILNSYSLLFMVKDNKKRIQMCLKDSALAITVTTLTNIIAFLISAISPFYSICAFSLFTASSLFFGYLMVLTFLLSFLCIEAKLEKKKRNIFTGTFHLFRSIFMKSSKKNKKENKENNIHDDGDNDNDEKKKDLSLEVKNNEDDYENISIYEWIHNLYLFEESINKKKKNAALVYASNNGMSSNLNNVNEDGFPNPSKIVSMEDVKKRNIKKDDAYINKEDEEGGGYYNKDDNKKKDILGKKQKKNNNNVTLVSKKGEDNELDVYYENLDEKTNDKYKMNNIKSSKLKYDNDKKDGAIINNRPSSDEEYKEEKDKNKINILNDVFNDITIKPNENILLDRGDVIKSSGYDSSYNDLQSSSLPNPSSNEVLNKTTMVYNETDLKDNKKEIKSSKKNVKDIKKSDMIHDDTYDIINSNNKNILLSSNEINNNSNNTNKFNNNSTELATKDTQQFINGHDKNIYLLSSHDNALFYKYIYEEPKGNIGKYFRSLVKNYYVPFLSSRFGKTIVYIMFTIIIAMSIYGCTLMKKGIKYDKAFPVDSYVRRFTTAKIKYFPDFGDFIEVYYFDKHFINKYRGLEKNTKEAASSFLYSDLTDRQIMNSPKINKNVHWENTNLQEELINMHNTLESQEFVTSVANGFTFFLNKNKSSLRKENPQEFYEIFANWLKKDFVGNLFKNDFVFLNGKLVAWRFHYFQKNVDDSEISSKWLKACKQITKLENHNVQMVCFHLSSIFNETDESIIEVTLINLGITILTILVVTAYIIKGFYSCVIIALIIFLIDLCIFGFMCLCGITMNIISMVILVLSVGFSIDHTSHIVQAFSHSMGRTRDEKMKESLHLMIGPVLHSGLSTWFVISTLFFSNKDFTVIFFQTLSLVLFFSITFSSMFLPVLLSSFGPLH

PfNCR1 [2] = biological target: T1, PfNCR1; experiment: cryo-EM structure of the complex, […] Å; conditions: 1 mM compound; ecto site, displaces CHS
PfNCR1 [3] = biological target: T1, PfNCR1; experiment: cryo-EM structure of the complex; conditions: ecto site, alongside CHS; GDN

`CC(C)c1cccc(C(NC(=O)C2Cc3ccccc3CN2C(=O)c2cccc(N3CCOCC3)c2)C2CCCC2)c1` (stereo not drawn) [Compound 2, MMV028038] was tested, and the “apparent Kd” value (PfNCR1 [1]) was “tryptophan quenching-based binding assays revealed the apparent Kd values in the micromolar range” and the “cryo-EM structure of the complex, 3.69 Å” value (PfNCR1 [2]) was “this ligand completely displaces the CHS molecule in the ECD sterol site”.

For `COc1ccc(N2CCN(C(CNC(=O)c3c(F)cccc3F)c3ccc4c(c3)OCO4)CC2)cc1` (stereo not drawn) [Compound 4, G856-4236], the “cryo-EM structure of the complex” value (PfNCR1 [3]) was “the new compound was bound to the ecto site without displacing the sterol”.
